For the data set, the target named is T1, Hepatocyte ASGPR receptor (Homo sapiens, UniProt P07306).
T1 construct: endogenous in cells
T1 sequence (P07306 1-291): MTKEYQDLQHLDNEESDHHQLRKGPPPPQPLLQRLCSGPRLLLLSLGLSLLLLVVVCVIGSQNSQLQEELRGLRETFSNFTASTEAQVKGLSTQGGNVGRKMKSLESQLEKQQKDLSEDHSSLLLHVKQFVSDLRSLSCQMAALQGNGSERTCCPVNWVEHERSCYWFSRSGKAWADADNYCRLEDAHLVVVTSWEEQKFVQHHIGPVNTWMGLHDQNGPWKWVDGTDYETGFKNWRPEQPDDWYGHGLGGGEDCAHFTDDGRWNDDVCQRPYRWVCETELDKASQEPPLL
T1 sequence (P07307 1-311 partner): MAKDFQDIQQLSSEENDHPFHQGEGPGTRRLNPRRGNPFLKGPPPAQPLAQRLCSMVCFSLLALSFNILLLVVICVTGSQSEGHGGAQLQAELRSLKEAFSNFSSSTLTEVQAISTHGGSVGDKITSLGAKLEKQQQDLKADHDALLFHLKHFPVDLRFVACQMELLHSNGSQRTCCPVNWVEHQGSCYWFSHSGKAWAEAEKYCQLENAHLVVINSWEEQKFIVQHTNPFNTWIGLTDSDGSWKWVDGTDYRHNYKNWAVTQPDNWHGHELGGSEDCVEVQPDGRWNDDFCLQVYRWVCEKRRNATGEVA
Briefly: Binding affinity test with hepatocyte ASGPR receptor (Cy5 flow cytometry, binding saturation curve). The note with it: for Bmax: average Cy5 fluorescence intensity of live cells minus blank, one site binding (hyperbola) fit; for Bmax / Kd: 0.9-100 nM, 2 hours on ice; for Kd: one site binding (hyperbola) fit of Cy5 fluorescence, read-out: Kd (dissociation equilibrium constant); for binding affinity with ASGPR receptor: statement in words from Table 3. On the procedure: Embodiment 1: Binding Affinity Test with Hepatocyte ASGPR Receptor
The compound G1, G4, G5 obtained from the examples 1, 4, 5, bound to the above mentioned siRNA respectively to form conjugates which were shown in Table 1.
G1-12, G4-12, G5-12 (1 uM) were diluted respectively in a gradient according to the following Table 2.
The cell concentration was diluted by DMEM culture medium with 2% FBS to 4*10^5 cells/mL.
200 μL cells of each sample and 200 μL siRNA were mixed uniformly, 200 μL cells of the blank control group and 200 μL culture medium were mixed uniformly, and were added in 3 wells of 96-well plate with U-shaped bottom, 100 μL each well. Samples of each concentration of all siRNA were placed in the ice box after sampling, and were placed in decolorization shaker and incubated in dark for 2 hours.
50 g of 96-well plate with U-shaped bottom was centrifuged for 2 minutes at 4° C. 80 μL supernatant was aspirated and discarded by pipette, 10 μg/mL propidium iodide was prepared by using of PBS with 2% FBS, 100 μL PI reagent was added in each well and was stained for 15 minutes. After staining, 50 g of 96-well plate with U-shaped bottom was centrifuged for 2 minutes at 4° C. After washed by PBS with 2% FBS for twice, 100 μL PBS with 2% FBS was added for resuspension, flow cytometer was used to test and count the average Cy5 fluorescence intensity of live cell population.

In general, Kd refers to a measure of binding affinity in units of concentration. Turning to “G4-12: G4 bound to 5' end of SEQ ID NO: 1 via C6 amino modification, paired with 5'-Cy5 SEQ ID NO: 2; structure Z4 (sense GUAUGUUGCCCGUUUGUCC; antisense GGACAAACGGGCAACAUACCU; G4 ligand via C6 amino; Cy5 label; modified_base join(1,5,8,12,16) OTHER; deoxyribonucleotide modification; modified_base 3 OTHER; thiophosphorylated skeleton modification and deoxyribonucleotide modification; modified_base join(4,6,7,9,10,11,13,14,15,17) OTHER; 2'-fluoro modification; modified_base join(2,18,19) OTHER; thiophosphorylated skeleton modification and 2'-fluoro modification; modified_base join(1,5,7,9,11,13,15,17) OTHER; 2'-O-methyl modification; modified_base join(3,19,20,21) OTHER; thiophosphorylated skeleton modification and 2'-O-methyl modification; modified_base join(2,4) …) [Compound G4-12]”, the Bmax is given as 239297, the dissociation constant Kd came to 6.37 nM and the “binding affinity with ASGPR receptor” value is “reach a higher level”.
As for “G5-12: G5 bound to 5' end of SEQ ID NO: 1 via C6 amino modification, paired with 5'-Cy5 SEQ ID NO: 2; structure Z5 (sense GUAUGUUGCCCGUUUGUCC; antisense GGACAAACGGGCAACAUACCU; G5 ligand via C6 amino; Cy5 label; modified_base join(1,5,8,12,16) OTHER; deoxyribonucleotide modification; modified_base 3 OTHER; thiophosphorylated skeleton modification and deoxyribonucleotide modification; modified_base join(4,6,7,9,10,11,13,14,15,17) OTHER; 2'-fluoro modification; modified_base join(2,18,19) OTHER; thiophosphorylated skeleton modification and 2'-fluoro modification; modified_base join(1,5,7,9,11,13,15,17) OTHER; 2'-O-methyl modification; modified_base join(3,19,20,21) OTHER; thiophosphorylated skeleton modification and 2'-O-methyl modification; modified_base join(2,4) …) [Compound G5-12]”, the Bmax was found to be 199232, the Kd was 3.69 nM and the “binding affinity with ASGPR receptor” value was “reach a higher level”.

The values are drawn from patent publication US20260167621A1, “Three Cluster Galactose Type Compound, Conjugate, Making Method and Use Thereof” (GUANGZHOU RIBOBIO CO., LTD., priority 2023, published 2026).
